The source of these data is patent publication US9416154B2, “5′-substituted nucleoside derivatives and methods of use thereof for the treatment of viral diseases” (priority 2011, dated 2016).

SMILES strings stand for the structures. Read-outs that look alike come from different tables or passages of the source. A value given as a limit tells only on which side of the number the result lay.

One data set relates to HCV replicon (1b). Kind of data set: Cell-based HCV replicon assay. As to conditions: Hepatitis C virus, 72 h. On the procedure: To measure cell-based anti-HCV activity of selected compounds of the present invention, replicon cells were seeded at 5000 cells/well in 96-well collagen I-coated Nunc plates in the presence of the test compound. Various concentrations of test compound, typically in 10 serial 2-fold dilutions, were added to the assay mixture, with the starting concentration ranging from 250 μM to 1 μM. The final concentration of dimethylsulfoxide was 0.5%, fetal bovine serum was 5%, in the assay media. Cells were harvested on day 3 by the addition of 1× cell lysis buffer (Ambion cat #8721). The replicon RNA level was measured using real time PCR (Taqman assay). The amplicon was located in 5B. The PCR primers were: 5B.2F, ATGGACAGGCGCCCTGA (SEQ ID. NO. 1); 5B.2R, […] (SEQ ID. NO. 2); the probe sequence was FAM-labeled CACGCCATGCGCTGCGG (SEQ ID. NO. 3). GAPDH RNA was used as endogenous control and was amplified in the same reaction as NS5B (multiplex PCR) using primers and VIC-labeled probe recommended by the manufacturer (PE Applied Biosystem). The real-time RT-PCR reactions were run on ABI PRISM 7900HT Sequence Detection System using the following program: 48° C. for 30 minutes, 95° C. for 10 minutes, 40 cycles of 95° C. for 15 sec, 60° C. for 1 minute. The ΔCT values (CT5B-CTGAPDH) were plotted against the concentration of test compound and fitted to the sigmoid dose-response model using XLfit4 (MDL). EC50 was defined as the concentration of inhibitor necessary to achieve ΔCT=1 over the projected baseline; EC90 the concentration necessary to achieve ΔCT=3.2 over the baseline. Alternatively, to quantitate the absolute amount of replicon RNA, a standard curve was established by including serially diluted T7 transcripts of replicon RNA in the Taqman assay. All Taqman reagents were from PE Applied Biosystems. Such an assay procedure was described in detail in e.g. Malcolm et al., Antimicrobial Agents and Chemotherapy 50: 1013-1020 (2006).
On the technique in general: In antiviral work, replicon cells carry a viral genome segment that copies itself.

A short description of data set [1]: Cytotoxicity (MTS assay or GAPDH RNA readout). It is filed as cell-based. As to conditions: human, replicon-containing Huh 7 cells, 3-day incubation, MTS or GAPDH RNA readout; read-out: 1b CC50. On the procedure:
The effect of the nucleoside derivatives on the proliferation and metabolism of Huh 7 hepatoma cells containing the subgenomic HCV replicon was measured using the MTS assay. Briefly, cells were seeded and dosed with compounds exactly as described in Example 13 above, for replicon EC50 determination. After a 3-day compound incubation period, the MTS assay was performed in accordance with the manufacturer's protocol for the CellTiter 96 Aqueous One Solution Cell Proliferation Assay (Promega, Catalog #G358). Alternatively, after a 3-day compound incubation, the amount of glyceraldehyde-3-phosphate dehydrogenase (GAPDH) RNA in replicon-containing Huh 7 cells was determined using qRT-PCR. CC50 values were derived from 10 serial 2-fold dilutions of the inhibitor in duplicate that yielded 50% inhibition of the MTS or GAPDH RNA readout by comparison with cells treated with vehicle control.

Where [2] appears, read: replicon cells, 3-day incubation, replicon RNA by real time PCR (Taqman), read-out: 1b EC50.
Where [3] appears, read: read-out: 1b EC50, replicon cells, 3-day incubation, replicon RNA by real time PCR (Taqman).

The term EC50 denotes the midpoint of the concentration-response curve. For orientation: CC50 means the concentration giving 50% cytotoxicity. For the molecule `C[C@@H](O)[C@H]1O[C@@H](n2cc(F)c3c(N)ncnc32)[C@](C)(O)[C@@H]1O` [Compound 3], the EC50 in the data set on HCV replicon (1b) (setting [2]) was greater than 100 µM. In addition, the CC50 at 3 day in data set [1] was greater than 100 µM.

As for `CCCCOC(=O)[C@H](C)NP(=O)(Oc1cccc2ccccc12)O[C@H](C)[C@H]1O[C@@H](n2cc(F)c3c(N)ncnc32)[C@](C)(O)[C@@H]1O` (stereo partly shown) [Compound 4], the concentration for a half-maximal effect (EC50) in the data set with HCV replicon (1b) (setting [3]) was greater than 100 µM. The CC50 at 3 day in data set [1] was determined as 84 µM.

On to `CC[C@@H](O)[C@H]1O[C@@H](n2cc(F)c3c(N)ncnc32)[C@](C)(O)[C@@H]1O` [Compound 5], for which the EC50 in the data set with HCV replicon (1b) (setting [2]) was determined as 23 µM. In addition, the CC50 at 3 day in data set [1] was 24 µM.

For the molecule `CCCCOC(=O)[C@H](C)NP(=O)(Oc1cccc2ccccc12)O[C@H](CC)[C@H]1O[C@@H](n2cc(F)c3c(N)ncnc32)[C@](C)(O)[C@@H]1O` (stereo partly shown) [Compound 6], the EC50 in the data set on HCV replicon (1b) (setting [3]) is 9.3 µM. For the same molecule, in data set [1], the CC50 at 3 day came out at 5.7 µM.

Turning to `CC[C@@H](O)[C@H]1O[C@@H](n2ccc3c(N)ncnc32)[C@](C)(O)[C@@H]1O` [Compound 7], in the data set on HCV replicon (1b) (setting [2]), the EC50 was greater than 100 µM. The CC50 at 3 day in data set [1] was greater than 100 µM.

Take `CCCCOC(=O)[C@H](C)NP(=O)(Oc1cccc2ccccc12)O[C@H](CC)[C@H]1O[C@@H](n2ccc3c(N)ncnc32)[C@](C)(O)[C@@H]1O` (stereo partly shown) [Compound 8]: the half-maximal effective concentration (EC50) in the data set on HCV replicon (1b) (setting [3]) turned out to be 13 µM. Also, the cytotoxic concentration (CC50) at 3 day in data set [1] is 30 µM.

Turning to `CC[C@@H](OP(=O)(N[C@@H](C)C(=O)OC)Oc1ccccc1)[C@H]1O[C@@H](n2cc(F)c3c(N)ncnc32)[C@](C)(O)[C@@H]1O` (stereo partly shown) [Compound 10], the EC50 in the data set on HCV replicon (1b) (setting [3]) stood at 15 µM. Also, the CC50 at 3 day in data set [1] is 20 µM.

For the molecule `COC(=O)[C@H](C)NP(=O)(Oc1ccccc1)O[C@H](C)[C@H]1O[C@@H](n2cc(F)c3c(N)ncnc32)[C@](C)(O)[C@@H]1O` (stereo partly shown) [Compound 11], in the data set on HCV replicon (1b) (setting [3]), the EC50 worked out at 37 µM. In addition, the CC50 at 3 day in data set [1] is greater than 100 µM.

Take `COC(=O)[C@H](C)NP(=O)(Oc1ccccc1)O[C@@H](C)[C@H]1O[C@@H](n2cc(F)c3c(N)ncnc32)[C@](C)(O)[C@@H]1O` (stereo partly shown) [Compound 12]: in the data set on HCV replicon (1b) (setting [3]), the concentration for a half-maximal effect (EC50) amounted to 39 µM. In data set [1], the CC50 at 3 day is greater than 100 µM.

With `CC(O)[C@H]1O[C@@H](n2ccc3c(N)ncnc32)[C@](C)(F)[C@@H]1O` (stereo partly shown) [Compound 14], in the data set on HCV replicon (1b) (setting [2]), the concentration giving a half-maximal response (EC50) was greater than 100 µM. In addition, the CC50 at 3 day in data set [1] is greater than 100 µM.

Take `CC(C)OC(=O)[C@H](C)NP(=O)(Oc1ccccc1)OC(C)[C@H]1O[C@@H](n2ccc3c(N)ncnc32)[C@](C)(F)[C@@H]1O` (stereo partly shown) [Compound 17]: in the data set with HCV replicon (1b) (setting [3]), the EC50 is greater than 100 µM. Also, in data set [1], the CC50 at 3 day was greater than 100 µM.

Consider `CCOC(=O)[C@H](C)NP(=O)(Oc1cccc2ccccc12)OC(C)[C@H]1O[C@@H](n2ccc3c(N)ncnc32)[C@](C)(F)[C@@H]1O` (stereo partly shown) [Compound 18], for which the 50% effective concentration (EC50) in the data set with HCV replicon (1b) (setting [3]) is greater than 100 µM. Besides, the cytotoxic concentration (CC50) at 3 day in data set [1] is greater than 100 µM.

Take `CC(C)OC(=O)[C@H](C)NP(=O)(Oc1cccc2ccccc12)OC(C)[C@H]1O[C@@H](n2ccc3c(N)ncnc32)[C@](C)(F)[C@@H]1O` (stereo partly shown) [Compound 19]: the concentration giving a half-maximal response (EC50) in the data set on HCV replicon (1b) (setting [3]) was greater than 20 µM. For the same molecule, in data set [1], the CC50 at 3 day was greater than 20 µM.

For the molecule `CCOC(=O)[C@H](C)NP(=O)(Oc1ccc(Cl)cc1)OC(C)[C@H]1O[C@@H](n2ccc3c(N)ncnc32)[C@](C)(F)[C@@H]1O` (stereo partly shown) [Compound 20], the EC50 with HCV replicon (1b) (setting [3]) was greater than 100 µM. Besides, in data set [1], the cytotoxic concentration (CC50) at 3 day is greater than 100 µM.

For the molecule `CC(C)OC(=O)[C@H](C)NP(=O)(Oc1ccc(Cl)cc1)OC(C)[C@H]1O[C@@H](n2ccc3c(N)ncnc32)[C@](C)(F)[C@@H]1O` (stereo partly shown) [Compound 21], in the data set with HCV replicon (1b) (setting [3]), the EC50 was greater than 100 µM. The half-maximal cytotoxic concentration (CC50) at 3 day in data set [1] was greater than 100 µM.

As to `CCOC(=O)[C@H](C)NP(=O)(Oc1ccccc1Cl)OC(C)[C@H]1O[C@@H](n2ccc3c(N)ncnc32)[C@](C)(F)[C@@H]1O` (stereo partly shown) [Compound 22], the concentration for a half-maximal effect (EC50) with HCV replicon (1b) (setting [3]) is greater than 100 µM. For the same molecule, in data set [1], the CC50 at 3 day was greater than 100 µM.

Regarding `CC(C)OC(=O)[C@H](C)NP(=O)(Oc1ccccc1Cl)OC(C)[C@H]1O[C@@H](n2ccc3c(N)ncnc32)[C@](C)(F)[C@@H]1O` (stereo partly shown) [Compound 23], the concentration for a half-maximal effect (EC50) with HCV replicon (1b) (setting [3]) was greater than 100 µM. For the same molecule, the CC50 at 3 day in data set [1] is greater than 100 µM.
